Legend:
participants with SSc-RP [1] = experiment: SHAQ - Alternative Disability Index; type: in vivo, human
Excerpt: The SHAQ is used to calculate a Disability Index to assess the participant qualify of life. The eight categories assessed by the Disability Index are 1) dressing and grooming, 2) arising, 3) eating, 4) walking, 5) hygiene, 6) reach, 7) grip, and 8) common daily activities. For each of these categories, patients report the amount of difficulty they have in performing two or three specific activities.
There are four possible responses for the Disability Index questions: • Without any difficulty=0 • With some difficulty=1 • With much difficulty=2 • Unable to do=3 • The highest score reported by the patient for any component question of the eight categories determines the score for that category. • If a component question is left blank or the response is too ambiguous to assign a score, then the score for that category is determined by the remaining completed question(s). • If all component questions are blank or if more than one answer is given, then follow up with the respondent is required. • If the respondent's mark is between the response columns, then move it to the closest one. If it's directly between the two, move it to the higher one.
The aid and device variables are not used to calculate the alternative disability index; it is calculated by adding the scores for each of the categories and dividing by the number of categories answered. This gives a score in the 0 to 3 range.

participants with SSc-RP [2] = experiment: SHAQ - Visual Analog Scale - Breathing Problems; type: in vivo, human; set-up: Visual Analog Scale-Breathing Problems, In Clinic Visit (Day 12), Mean / Visual Analog Scale-Breathing Problems, In Clinic Visit (Day 12), Median / SHAQ Visual Analogue Scale - Breathing Problems, In-Clinic Visit (Day 12), Mean / SHAQ Visual Analogue Scale - Breathing Problems, In-Clinic Visit (Day 12), Median / SHAQ Visual Analogue Scale - Breathing Problems, Change from Baseline, Median: scale not given here
Excerpt: The standard, validated, patient reported outcome measures tool for SSc patients, the Scleroderma Health Assessment Questionnaire (SHAQ), will be used to assess the participant qualify of life. Details are attached in the Appendix. The participant quality of life will be scored, and a disability index calculated for each questionnaire completed by the patient at Screening and each in-clinic visit. The absolute change in participant quality of life from baseline to the end of each dosing period will be calculated similar to frequency data as before.
The standard, validated, patient reported outcome measures tool for SSc patients, the SHAQ, was collected at the time points specified in the study schedules (FIG. 2 and FIGS. 4A and 4B) to assess the participant's quality of life. The SHAQ included a Raynaud's VAS that will also be reported separately.

[3] = Modified ITT Population-Part A, Day 12, dose cilnidipine 10 mg, tadalafil 5 mg, alone or combined as labelled
[4] = Modified ITT Population-Part A, dose cilnidipine 10 mg, tadalafil 5 mg, alone or combined as labelled
[5] = Tadalafil 5 mg, SSc patients, PP, Part A

Q: How did the “alternative disability index, Change from Baseline, Mean” value (participants with SSc-RP [1]; [3]) turn out when CN1CC(=O)N2[C@H](c3ccc4c(c3)OCO4)c3[nH]c4ccccc4c3C[C@@H]2C1=O [Tadalafil] was run?
A: −0.094

Q: What about the “alternative disability index, Change from Baseline, Median” value (participants with SSc-RP [1]; [3]) of the same compound?
A: −0.125

Q: What about the “alternative disability index, Percent Change from Baseline, Mean” value (participants with SSc-RP [1]; [3]) of the same compound?
A: −43.70%

Q: What about the “alternative disability index, Percent Change from Baseline, Median” value (participants with SSc-RP [1]; [3]) of the same compound?
A: −20.00%

Q: What about the “alternative disability index, In Clinic Visit (Day 12), Mean” value (participants with SSc-RP [1]; [4]) of the same compound?
A: 0.375

Q: What about the “alternative disability index, In Clinic Visit (Day 12), Median” value (participants with SSc-RP [1]; [4]) of the same compound?
A: 0.250

Q: What about the “SHAQ Alternative Disability Index, Change from Baseline, Max” value (participants with SSc-RP [1]; [5]) of the same compound?
A: 0.00

Q: And the “SHAQ Alternative Disability Index, Change from Baseline, Mean” value (participants with SSc-RP [1]; [5])?
A: −0.094

Q: And the “SHAQ Alternative Disability Index, Change from Baseline, Median” value (participants with SSc-RP [1]; [5])?
A: −0.125

Q: And the “SHAQ Alternative Disability Index, Change from Baseline, Min” value (participants with SSc-RP [1]; [5])?
A: −0.13,

Q: What about the “SHAQ Alternative Disability Index, Change from Baseline, Q3” value (participants with SSc-RP [1]; [5]) of the same compound?
A: −0.063

Q: And the “SHAQ Alternative Disability Index, Day 12, Max” value (participants with SSc-RP [1]; [5])?
A: 1.00

Q: What about the “SHAQ Alternative Disability Index, Day 12, Mean” value (participants with SSc-RP [1]; [5]) of the same compound?
A: 0.375

Q: And the “SHAQ Alternative Disability Index, Day 12, Median” value (participants with SSc-RP [1]; [5])?
A: 0.250

Q: And the “SHAQ Alternative Disability Index, Day 12, Min” value (participants with SSc-RP [1]; [5])?
A: 0.00,

Q: What about the “SHAQ Alternative Disability Index, Day 12, Q1” value (participants with SSc-RP [1]; [5]) of the same compound?
A: 0.000,

Q: And the “SHAQ Alternative Disability Index, Day 12, Q3” value (participants with SSc-RP [1]; [5])?
A: 0.750

Q: And the “SHAQ Alternative Disability Index, Percent Change from Baseline, Max” value (participants with SSc-RP [1]; [5])?
A: −11.1

Q: And the “SHAQ Alternative Disability Index, Percent Change from Baseline, Mean” value (participants with SSc-RP [1]; [5])?
A: −43.70

Q: What about the “SHAQ Alternative Disability Index, Percent Change from Baseline, Median” value (participants with SSc-RP [1]; [5]) of the same compound?
A: −20.00

Q: What about the “SHAQ Alternative Disability Index, Percent Change from Baseline, Min” value (participants with SSc-RP [1]; [5]) of the same compound?
A: −100.0,

Q: And the “SHAQ Alternative Disability Index, Percent Change from Baseline, Q1” value (participants with SSc-RP [1]; [5])?
A: −100.00,

Q: What about the “SHAQ Alternative Disability Index, Percent Change from Baseline, Q3” value (participants with SSc-RP [1]; [5]) of the same compound?
A: −11.11

Q: And the “Visual Analog Scale-Breathing Problems, Change from Baseline, Mean” value (participants with SSc-RP [2]; [3])?
A: 0.500

Q: What about the “Visual Analog Scale-Breathing Problems, In Clinic Visit (Day 12), Mean” value (participants with SSc-RP [2]; [4]) of the same compound?
A: 4.300

Q: What about the “Visual Analog Scale-Breathing Problems, In Clinic Visit (Day 12), Median” value (participants with SSc-RP [2]; [4]) of the same compound?
A: 4.000

Q: What about the “SHAQ VAS Breathing Problems, Change from Baseline, Max” value (participants with SSc-RP [2]; [5]) of the same compound?
A: 2.80

Q: And the “SHAQ VAS Breathing Problems, Change from Baseline, Mean” value (participants with SSc-RP [2]; [5])?
A: 0.500

Q: And the “SHAQ VAS Breathing Problems, Change from Baseline, Median” value (participants with SSc-RP [2]; [5])?
A: 1.050

Q: What about the “SHAQ VAS Breathing Problems, Change from Baseline, Min” value (participants with SSc-RP [2]; [5]) of the same compound?
A: −2.90,

Q: And the “SHAQ VAS Breathing Problems, Change from Baseline, Q1” value (participants with SSc-RP [2]; [5])?
A: −1.450,

Q: What about the “SHAQ VAS Breathing Problems, Change from Baseline, Q3” value (participants with SSc-RP [2]; [5]) of the same compound?
A: 2.450

Q: And the “SHAQ VAS Breathing Problems, Day 12, Max” value (participants with SSc-RP [2]; [5])?
A: 9.20

Q: What about the “SHAQ VAS Breathing Problems, Day 12, Mean” value (participants with SSc-RP [2]; [5]) of the same compound?
A: 4.300

Q: And the “SHAQ VAS Breathing Problems, Day 12, Median” value (participants with SSc-RP [2]; [5])?
A: 4.000

Q: And the “SHAQ VAS Breathing Problems, Day 12, Min” value (participants with SSc-RP [2]; [5])?
A: 0.00,

Q: What about the “SHAQ VAS Breathing Problems, Day 12, Q1” value (participants with SSc-RP [2]; [5]) of the same compound?
A: 0.100,

Q: What about the “SHAQ VAS Breathing Problems, Day 12, Q3” value (participants with SSc-RP [2]; [5]) of the same compound?
A: 8.500

Q: What about the “SHAQ VAS Breathing Problems, Percent Change from Baseline, Max” value (participants with SSc-RP [2]; [5]) of the same compound?
A: 56.0

Q: And the “SHAQ VAS Breathing Problems, Percent Change from Baseline, Mean” value (participants with SSc-RP [2]; [5])?
A: −2.66

Q: What about the “SHAQ VAS Breathing Problems, Percent Change from Baseline, Median” value (participants with SSc-RP [2]; [5]) of the same compound?
A: 29.58

Q: What about the “SHAQ VAS Breathing Problems, Percent Change from Baseline, Min” value (participants with SSc-RP [2]; [5]) of the same compound?
A: −93.5,

Q: What about the “SHAQ VAS Breathing Problems, Percent Change from Baseline, Q1” value (participants with SSc-RP [2]; [5]) of the same compound?
A: −93.55,

Q: And the “SHAQ VAS Breathing Problems, Percent Change from Baseline, Q3” value (participants with SSc-RP [2]; [5])?
A: 56.00

From US20240358692A1, “TREATMENT OF SCLERODERMA” (Aisa Pharma, Inc., priority 2023, published 2024)
